Data reported in patent US20250281561A1, “APPLICATION OF LYCIUM BARBARUM LEAF EXTRACT IN PREPARING DRUG FOR TREATING DIABETIC RETINOPATHY” (NANJING UNIVERSITY OF CHINESE MEDICINE, priority 2025, published 2025).

Assays:
[1] = tested on: ARPE-19 cells with high glucose-induced damage; test: Kit detection of oxidative stress level (GSH, SOD, MDA) in ARPE-19 cells with high glucose-induced damage; format: cell-based; conditions: summary statement
Protocol: (§1) Preparation method of active ingredient solution of Lycium barbarum leaf: 1 mg of freeze-dried powder of different active ingredients of Lycium barbarum leaf (Lycium barbarum leaf water extract, Lycium barbarum leaf ethanol extract, refined Lycium barbarum leaf extract, Lycium barbarum polysaccharide, and betaine) prepared in Embodiment 1 was weighed respectively, and dissolved in 1 mL of DMEM/F12 culture medium to prepare 1 mg/mL solution, and the solution was diluted to a required concentration with DMEM/F12 culture medium during administration, and filtered with a […] filter for sterilization.
(§2) The ARPE-19 cells were cultured in DMEM/F12 culture medium containing 10% FBS and 1% penicillin/streptomycin at 37° C. under 5% CO2. A model group was treated with 300 mM glucose, and the culture medium was added with a corresponding drug to culture the cells for 48 hours to complete the modeling.
The cells were inoculated into a 6-well plate during cell culture, and divided into a Con group, a Mod group, a ST-H group, a ST-L group, a CT-H group, a CT-L group, a FT-H group, a FT-L group, a DT-H group, a DT-L group, a SWJ-H group, and a SWJ-L group, wherein the high dose was 10 μg/mL and the low dose was 1 μg/mL. […] A GSH level, and SOD and MDA activities in the cells were detected according to a kit instruction.

[2] = tested on: ARPE-19 cells with high glucose-induced damage; test: CCK8 survival rate of ARPE-19 cells with high glucose-induced damage; format: cell-based; conditions: 300 mM glucose, 48 hours; high dose 10 μg/mL, low dose 1 μg/mL; compared with model group
Protocol: as §1, with “sterilization. […]” for “sterilization.”
The cells were inoculated into a 96-well plate during culture, and divided into a control group (Con group), a model group (Mod group), a high-dose Lycium barbarum leaf water extract group (ST-H group), a low-dose Lycium barbarum leaf water extract group (ST-L group), a high-dose Lycium barbarum leaf ethanol extract group (CT-H group), a low-dose Lycium barbarum leaf ethanol extract group (CT-L group), […], a low-dose Lycium barbarum polysaccharide group (DT-L group), a high-dose betaine group (SWJ-H group), and a low-dose betaine group (SWJ-L group), wherein the high dose was 10 μg/mL and the low dose was 1 μg/mL. […] An absorbance was measured at 450 nm, and a cell survival rate was calculated.

[3] = tested on: ARPE-19 cells with high glucose-induced damage; test: ROS content (H2FCDA fluorescence) in ARPE-19 cells with high glucose-induced damage; format: cell-based; conditions: high dose 10 g/mL, low dose 1 μg/mL, compared with model group
Protocol: as §2
The cells were inoculated into a 96-well plate during culture, and divided into a Con group, a Mod group, a ST-H group, a ST-L group, a CT-H group, a CT-L group, a FT-H group, a FT-L group, a DT-H group, a DT-L group, a SWJ-H group, and a SWJ-L group, wherein the high dose was […] and the low dose was 1 μg/mL. After the culture was completed, the culture medium was discarded, and a culture medium containing 1/1000 H2FCDA was added to incubate the cells at 37° C. for 30 minutes. A photo was taken by a fluorescence microscope at an excitation wavelength of 488 nm, and a fluorescence intensity was analyzed by ImageJ.

DR zebrafish [4] = test: Kit detection of glucose content and oxidative stress level (GSH, SOD, MDA) in DR zebrafish; format: in vivo
Protocol: (§3) 3dpf zebrafish embryos were cultured in a 6-well plate, with 30 zebrafish embryos in each well. A model group and an administration group were cultured in 100 mg/mL circulating water, and divided into a Con group, a Mod group, a metformin (MET) group, a ST-H group, a ST-L group, a CT-H group, a CT-L group, a FT-H group, a FT-L group, a DT-H group, a DT-L group, a SWJ-H group, and a SWJ-L group. An administration dosage for the MET group was 200 μg/ml, and a crude drug dosage was converted for other administration groups, wherein a high dose was 40 μg/mL, and a low dose was 20 μg/mL. The zebrafish embryos were cultured for three days, and the water was replaced at a fixed time every day.
Wild A/B-type zebrafish embryos were cultured according to the above method, and then the zebrafish embryos were collected into Ep tubes and then homogenized, and centrifuged at 4000 rpm for 10 minutes. A supernatant was taken, and GLU and GSH levels and SOD and MDA activities in cells were detected according to a kit instruction.

DR zebrafish [5] = test: Retinal vascular diameter in DR zebrafish (fli1: EGFP, fluorescence microscope, ImageJ); format: in vivo; conditions: crude drug dosage high 40 μg/mL, low 20 μg/mL, three days, compared with model group
Protocol: as §3
3dpf fli1: EGFP zebrafish embryos were cultured by the method as described in 2.4, and 0.003% phenylthiourea (PTU) was added into circulating water to inhibit melanogenesis of the zebrafish embryos. After the culture was completed, the zebrafish embryos were collected, and fixed on a glass slide. The retinal vessels in the zebrafish were photographed by a fluorescence microscope, and a retinal vascular diameter was measured by ImageJ.

[6] = tested on: p38, ERK and JNK genes in a MAPK pathway; test: qPCR gene expression level (p38, ERK, JNK) in DR zebrafish; format: in vivo; conditions: crude drug dosage high 40 μg/mL, low 20 μg/mL, three days, compared with model group
Protocol: as §3
The cultured zebrafish embryos were collected into Ep tubes, and each tube was added with 1 mL of TRIZOL and then homogenized, and centrifuged at 4° C. and 12000× g for 10 minutes. A supernatant was taken, and other operations were as described in 2.3.

[7] = tested on: p38, ERK and JNK genes in a MAPK pathway; test: qPCR gene expression level (p38, ERK, JNK) in ARPE-19 cells with high glucose-induced damage; format: cell-based; conditions: 10 μg/mL, compared with model group
Protocol: as §2
The cells were inoculated into a 6-well plate during cell culture, and divided into a Con group, a Mod group, a ST group, a CT group, a FT group, a DT group, and a SWJ group, wherein the administration dosage was 10 μg/mL. The cells were collected into Ep tubes and centrifuged at 1000 rpm for 5 minutes, and a supernatant was discarded. Each tube was added with 1 ml of Trizol reagent and blown violently for 15 seconds to mix fully and evenly, and the mixture was allowed to stand at room temperature for 2-3 minutes, and rotated at 4° C. for 1-2 hours. […] A concentration was determined by an ultra-micro ultraviolet spectrophotometer, and then the mixture was stored in a refrigerator at −80° C. for later use. […]
The reaction system was mixed fully and evenly, added to a 96-well PCR plate, centrifuged, and determined by a PCR machine. […] A CT value of a sample was determined, and then relative expressions of p38, JNK and ERK in the sample were calculated by a 2-ΔΔCT method.

C[N+](C)(C)CC(=O)O [betaine]
oxidative stress [1]: improve oxidative stress
survival rate of ARPE-19 cells [2]: improve a survival rate
ROS content (ROS fluorescence intensity) [3]: significantly reduce the generation of ROS
oxidative stress (DR zebrafish [4]; DR zebrafish model, summary statement): improve oxidative stress
glucose content (DR zebrafish [4]; DR zebrafish, crude drug dosage high 40 μg/mL, low 20 μg/mL, three days, compared with model group): reduce a glucose content in vivo
retinal vascular diameter (DR zebrafish [5]): significantly reduce a retinal vascular diameter
relative mRNA expressions of p38, ERK and JNK [6]: down-regulate expression levels
relative mRNA expressions of p38, ERK and JNK [7]: down-regulate expression levels
